# Reference: US9902725B2, “Heterocyclic derivatives as RORgamma modulators” (GENFIT, priority 2014, dated 2018)
# Target: T1, RORγt ligand-binding domain (RORγt-LBD) (Homo sapiens, UniProt P51449)
# T1 construct: 20 nM recombinantly expressed RORγ-LBD fused to GST
# T1 sequence (P51449 269-508 limits assumed): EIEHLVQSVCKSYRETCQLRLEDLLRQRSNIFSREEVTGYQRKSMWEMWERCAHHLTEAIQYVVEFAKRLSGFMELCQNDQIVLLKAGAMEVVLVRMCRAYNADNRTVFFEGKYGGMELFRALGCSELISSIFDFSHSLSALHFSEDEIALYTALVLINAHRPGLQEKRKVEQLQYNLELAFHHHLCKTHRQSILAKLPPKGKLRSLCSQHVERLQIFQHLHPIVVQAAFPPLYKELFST
# Experiment: Time-resolved FRET (TR-FRET) RORγt coactivator assay
# Type: biochemical
# Settings: GST-RORγ-LBD, biotinylated RIP140 peptide, coactivator displacement
# Text: Time-resolved FRET (TR-FRET) RORγt coactivator assay was used to identify RORγ modulator compounds with ligand-dependent coactivator displacement. The assay uses a d2-labeled anti-GST antibody, synthetic N-terminally biotinylated peptide which is derived from nuclear receptor coactivator protein RIP140, and a RORγt ligand-binding domain (RORγt-LBD) that is tagged with glutathione-S-transferase (GST). The influence of compounds on the RORγ-peptide interaction relies on the binding dependent energy transfer from a donor to an acceptor fluorophore attached to the binding partner of interest. […] For reduction of background from compound fluorescence, TR-FRET method makes use of generic fluorophore labels and time resolved detection.
# The assays were done in a final volume of 20 μl in a 384 well plate in a CHAPS buffer (2 mM CHAPS; 1 mM DTT, 2 mM EDTA; 0.1% BSA), containing 20 nM recombinantly expressed RORγ-LBD fused to GST, 30 nM N-terminally biotinylated peptide, 1 nM streptavidin-terbium conjugate and 20 nM d2 labeled-anti-GST. Test compounds were diluted using 10 mM stock solution. The range of the final compound concentrations used in this test was from 0.3 nM to 30 μM (logarithmic scale). DMSO content of the samples was kept at 1%. The assay was equilibrated for 2 hours in the dark at room temperature in 384 well plates (Falcon). The signal was detected by an Ultra384 reader (TECAN). The results were visualized by plotting the ratio between the emitted light at 665 nm and 620 nm. A basal level of RORγ-peptide formation is observed in the absence of added compound. Compounds that promote coactivator displacement induce a concentration-dependent decrease in time-resolved fluorescent signal. Data were collected and analyzed using GraphPad Prism software (GraphPad Software V5.02, San Diego Calif. USA). IC50 in μM and Emax in % were reported for each compound.
row,SMILES,IC50 [nM]
1,"COC(=O)Cc1c[nH]c2ccc(CC(=O)NC(c3ccccc3)c3cccc(N4CCCCC4)c3)cc12 (stereo not shown) [Cpd. 238, methyl 2-{5-[({phenyl[3-(piperidin-1-yl)phenyl]methyl}carbamoyl)methyl]-1H-indol-3-yl}acetate]",1000 to 10000
2,"CCOc1ccc(C(NC(=O)Cc2ccc3[nH]cc(CCC(=O)OC(C)(C)C)c3c2)c2ccccc2)c(OCC)c1 (stereo not shown) [Cpd. 246, tert-butyl 3-[5-({[(2,4-diethoxyphenyl)(phenyl)methyl]carbamoyl}methyl)-1H-indol-3-yl]propanoate]",< 1000
3,"Cc1ccc(C(CC(C)C)NC(=O)Cc2ccc3[nH]cc(CCC(=O)OC(C)(C)C)c3c2)c(OC(C)C)c1 (stereo not shown) [Cpd. 248, tert-butyl 3-{5-[({3-methyl-1-[4-methyl-2-(propan-2-yloxy)phenyl]butyl}carbamoyl)methyl]-1H-indol-3-yl}propanoate]",1000 to 10000
4,"Cc1ccc(C(NC(=O)Cc2ccc3[nH]cc(CCC(=O)OC(C)(C)C)c3c2)c2ccccc2OC(C)C)o1 (stereo not shown) [Cpd. 254, tert-butyl 3-[5-({[(5-methylfuran-2-yl)[2-(propan-2-yloxy)phenyl]methyl]carbamoyl}methyl)-1H-indol-3-yl]propanoate]",< 1000
5,"COC(=O)Cc1c[nH]c2ccc(CC(=O)NC(c3ncccn3)c3ccc(C)cc3Br)cc12 (stereo not shown) [Cpd. 256, methyl 2-[5-({[(2-bromo-4-methylphenyl)(pyrimidin-2-yl)methyl]carbamoyl}methyl)-1H-indol-3-yl]acetate]",1000 to 10000
6,"Cc1ccc(Cl)c(C(NC(=O)Cc2ccc3[nH]cc(CCC(=O)O)c3c2)c2ccccc2)c1 (stereo not shown) [compound 42, 3-[5-({[(2-chloro-5-methylphenyl)(phenyl)methyl]carbamoyl}methyl)-1H-indol-3-yl]propanoic acid]",< 1000
7,"Cc1cc(Br)ccc1C(NC(=O)Cc1ccc2[nH]cc(CCC(=O)O)c2c1)c1ccccc1 (stereo not shown) [compound 44, 3-[5-({[(4-bromo-2-methylphenyl)(phenyl)methyl]carbamoyl}methyl)-1H-indol-3-yl]propanoic acid]",< 1000
8,"Cc1cc(F)ccc1C(NC(=O)Cc1ccc2[nH]cc(CCC(=O)O)c2c1)c1ccccc1 (stereo not shown) [compound 46, 3-[5-({[(4-fluoro-2-methylphenyl)(phenyl)methyl]carbamoyl}methyl)-1H-indol-3-yl]propanoic acid]",< 1000
9,"Nc1ccccc1C(NC(=O)Cc1ccc2[nH]cc(CCC(=O)O)c2c1)c1ccccc1 (stereo not shown) [compound 52, 3-[5-({[(2-aminophenyl)(phenyl)methyl]carbamoyl}methyl)-1H-indol-3-yl]propanoic acid]",1000 to 10000
10,"CN(C)c1ccccc1C(NC(=O)Cc1ccc2[nH]cc(CCC(=O)O)c2c1)c1ccccc1 (stereo not shown) [compound 54, 3-{5-[({[2-(dimethylamino)phenyl](phenyl)methyl}carbamoyl)methyl]-1H-indol-3-yl}propanoic acid]",< 1000
11,"O=C(O)CCc1c[nH]c2ccc(NC(=O)NC(c3ccccc3)c3ccccc3N3CCCCC3)cc12 (stereo not shown) [compound 56, 3-{5-[({phenyl[2-(piperidin-1-yl)phenyl]methyl}carbamoyl)amino]-1H-indol-3-yl}propanoic acid]",< 1000
12,"NC(=O)c1ccc(C(NC(=O)Cc2ccc3[nH]cc(CCC(=O)O)c3c2)c2ccccc2)c(N2CCCC2)c1 (stereo not shown) [compound 63, 3-{5-[({[4-carbamoyl-2-(pyrrolidin-1-yl)phenyl](phenyl)methyl}carbamoyl)methyl]-1H-indol-3-yl}propanoic acid]",1000 to 10000
13,"O=C(O)Cc1c[nH]c2ccc(CC(=O)NC(c3ccccc3)c3ccc(Br)cc3N3CCCC3)cc12 (stereo not shown) [compound 67, 2-{5-[({[4-bromo-2-(pyrrolidin-1-yl)phenyl](phenyl)methyl}carbamoyl)methyl]-1H-indol-3-yl}acetic acid]",< 1000
14,"O=C(O)Cc1c[nH]c2ccc(NC(=O)NC(c3ccccc3)c3ccccc3N3CCCCC3)cc12 (stereo not shown) [compound 69, 2-{5-[({phenyl[2-(piperidin-1-yl)phenyl]methyl}carbamoyl)amino]-1H-indol-3-yl}acetic acid]",1000 to 10000
15,"CN(C)c1ccccc1C(NC(=O)Cc1ccc2[nH]cc(CC(=O)O)c2c1)c1ccccc1 (stereo not shown) [compound 71, 2-{5-[({[2-(dimethylamino)phenyl](phenyl)methyl}carbamoyl)methyl]-1H-indol-3-yl}acetic acid]",1000 to 10000

# Next, values leading:
row,IC50 [nM],SMILES
1,< 1000,"CC(C)(C)OC(=O)CCc1c[nH]c2ccc(CC(=O)NC(c3ccccc3)c3ccccc3N3CCCC(F)(F)C3)cc12 (stereo not shown) [Cpd. 232, tert-butyl 3-{5-[({[2-(3,3-difluoropiperidin-1-yl)phenyl](phenyl)methyl}carbamoyl)methyl]-1H-indol-3-yl}propanoate]"
2,1000 to 10000,"CC(C)(C)OC(=O)NC(=N)NC(=O)CCc1c[nH]c2ccc(CC(=O)NC(c3ccccc3)c3ccccc3N3CCCCC3)cc12 (stereo not shown) [Cpd. 234, tert-butyl N-[(3-{5-[({phenyl[2-(piperidin-1-yl)phenyl]methyl}carbamoyl)methyl]-1H-indol-3-yl}propanamido)methanimidoyl]carbamate]"
3,< 1000,"CCOC(=O)CCc1n[nH]c2ccc(CC(=O)NC(c3ccccc3)c3ccccc3N3CCCCC3)cc12 (stereo not shown) [Cpd. 236, ethyl 3-{5-[({phenyl[2-(piperidin-1-yl)phenyl]methyl}carbamoyl)methyl]-1H-indazol-3-yl}propanoate]"
4,< 1000,"CC(C)CC(NC(=O)Cc1ccc2[nH]cc(CCC(=O)OC(C)(C)C)c2c1)c1ccccc1OC(C)C (stereo not shown) [Cpd. 240, tert-butyl 3-{5-[({3-methyl-1-[2-(propan-2-yloxy)phenyl]butyl}carbamoyl)methyl]-1H-indol-3-yl}propanoate]"
5,< 1000,"Cc1ccc(C(NC(=O)Cc2ccc3[nH]cc(CCC(=O)OC(C)(C)C)c3c2)c2ccccc2)c(N2CCCCCC2)c1 (stereo not shown) [Cpd. 250, tert-butyl 3-{5-[({[2-(azepan-1-yl)-4-methylphenyl](phenyl)methyl}carbamoyl)methyl]-1H-indol-3-yl}propanoate]"
6,1000 to 10000,"Cc1cc(C(NC(=O)Cc2ccc3[nH]cc(CCC(=O)OC(C)(C)C)c3c2)c2ccccc2N2CCCCC2)oc1C (stereo not shown) [Cpd. 252, tert-butyl 3-[5-({[(4,5-dimethylfuran-2-yl)[2-(piperidin-1-yl)phenyl]methyl]carbamoyl}methyl)-1H-indol-3-yl]propanoate]"
7,1000 to 10000,"C#CCC(NC(=O)Cc1ccc2[nH]cc(CCC(=O)OC(C)(C)C)c2c1)c1ccccc1N1CCCCC1 (stereo not shown) [Cpd. 260, tert-butyl 3-{5-[({1-[2-(piperidin-1-yl)phenyl]but-3-yn-1-yl}carbamoyl)methyl]-1H-indol-3-yl}propanoate]"
8,< 1000,"CC(C)CC(NC(=O)Cc1ccc2[nH]cc(CCC(=O)O)c2c1)c1ccccc1N1CCOCC1 (stereo not shown) [compound 58, 3-{5-[({3-methyl-1-[2-(morpholin-4-yl)phenyl]butyl}carbamoyl)methyl]-1H-indol-3-yl}propanoic acid]"
9,1000 to 10000,"O=C(O)Cc1c[nH]c2ccc(CC(=O)NC(c3ccccc3)c3ccccc3N3CCCC3)cc12 (stereo not shown) [compound 73, 2-{5-[({phenyl[2-(pyrrolidin-1-yl)phenyl]methyl}carbamoyl)methyl]-1H-indol-3-yl}acetic acid]"
10,1000 to 10000,"O=C(O)Cc1c[nH]c2ccc(CC(=O)NC(c3ccccc3)c3ccccc3N3CCCCCC3)cc12 (stereo not shown) [compound 75, 2-{5-[({[2-(azepan-1-yl)phenyl](phenyl)methyl}carbamoyl)methyl]-1H-indol-3-yl}acetic acid]"
